Source: patent US4988687A, “Cephalosporin derivatives, and antibacterial agents” (priority 1986, dated 1991)
Values after ≈ are worked out from the molar mass of the structure shown. Read-outs that look alike come from different tables or passages of the source.

What was measured:
[1] = test system: E. coli GN5482; experiment: agar plate dilution method, MIC against E. coli GN5482; format: cell-based; conditions: Escherichia coli, read-out: Minimum Inhibitory Concentration (MIC)
Protocol: (§1) The in vitro antibacterial activities of the compounds of the present invention against various microorganisms, were measured by the following agar plate dilution method. One platinum loopfull of each test microorganism incubated overnight in Mueller Hinton broth, was inoculated to Mueller Hinton agar (inoculum size: 10^6 CFU/ml) Such culture media containing various antibiotics in various concentrations were prepared After incubation at 37° C. for 16 hours, the minimum inhibitory concentrations (MIC: μg/ml) were measured. As comparative compounds, cefotaxime, oeftazidime and the compounds disclosed in Example 2 of Japanese Unexamined Patent Publication No. 215690/1985 e.g. sodium 7-[2-(2-aminothiazol-4-yl)-2-ethoxyiminoacetamido]-3-(1-carboxylatemethylpyridinio-4-yl)thiomethyl-3-cephem-4-carboxylate (hereinafter referred to simply as "Reference Example A") were employed.

[2] = test system: C. freundii GN346/16; experiment: agar plate dilution method, MIC against C. freundii GN346/16; format: cell-based; conditions: Citrobacter freundii, read-out: Minimum Inhibitory Concentration (MIC)
Protocol: as §1

[3] = test system: E. coli NIHJ JC2; experiment: agar plate dilution method, MIC against E. coli NIHJ JC2; format: cell-based; conditions: Escherichia coli, read-out: Minimum Inhibitory Concentration (MIC)
Protocol: as §1

[4] = test system: E. cloacae Nek 39; experiment: agar plate dilution method, MIC against E. cloacae Nek 39; format: cell-based; conditions: Enterobacter cloacae, read-out: Minimum Inhibitory Concentration (MIC)
Protocol: as §1

[5] = test system: Ps. aeruginosa AKR17; experiment: agar plate dilution method, MIC against Ps. aeruginosa AKR17; format: cell-based; conditions: Pseudomonas aeruginosa; Ps. aeruginosa AKR17; 10^6 CFU/ml, 37° C., 16 hours; read-out: Minimum Inhibitory Concentration (MIC)
Protocol: as §1

[6] = test system: Ps. aeruginosa IFO3445; experiment: agar plate dilution method, MIC against Ps. aeruginosa IFO3445; format: cell-based; conditions: Pseudomonas aeruginosa, read-out: Minimum Inhibitory Concentration (MIC)
Protocol: as §1

[7] = test system: S. marcescens IAM 1184; experiment: agar plate dilution method, MIC against S. marcescens IAM 1184; format: cell-based; conditions: Serratia marcescens, read-out: Minimum Inhibitory Concentration (MIC)
Protocol: as §1

[8] = test system: P. vulgaris No. 33; experiment: agar plate dilution method, MIC against P. vulgaris No. 33; format: cell-based; conditions: Proteus vulgaris, read-out: Minimum Inhibitory Concentration (MIC)
Protocol: as §1

[9] = test system: C. freundii GN346; experiment: agar plate dilution method, MIC against C. freundii GN346; format: cell-based; conditions: Citrobacter freundii, read-out: Minimum Inhibitory Concentration (MIC)
Protocol: as §1

[10] = test system: S. aureus JS1; experiment: agar plate dilution method, MIC against S. aureus JS1; format: cell-based; conditions: Staphylococcus aureus, read-out: Minimum Inhibitory Concentration (MIC)
Protocol: as §1

[11] = test system: Ps. aeruginosa AK 109; experiment: agar plate dilution method, MIC against Ps. aeruginosa AK 109; format: cell-based; conditions: Pseudomonas aeruginosa, AK109, 16 h, read-out: Minimum Inhibitory Concentration (MIC)
Protocol: as §1

[12] = test system: P. vulgaris HX-19; experiment: agar plate dilution method, MIC against P. vulgaris HX-19; format: cell-based; conditions: Proteus vulgaris, HX19, 16 h, read-out: Minimum Inhibitory Concentration (MIC)
Protocol: as §1

[13] = test system: E. coli CSH(RE45); experiment: agar plate dilution method, MIC against E. coli CSH(RE45); format: cell-based; conditions: Escherichia coli, 16 h, read-out: Minimum Inhibitory Concentration (MIC)
Protocol: as §1

[14] = test system: Ps. maltophilia GN 12873; experiment: agar plate dilution method, MIC against Ps. maltophilia GN 12873; format: cell-based, Pseudomonas maltophilia; conditions: Stenotrophomonas maltophilia, read-out: Minimum Inhibitory Concentration (MIC)
Protocol: as §1

[15] = test system: S. marcescens No. 16-2; experiment: agar plate dilution method, MIC against S. marcescens No. 16-2; format: cell-based; conditions: Serratia marcescens, NO.162, 16 h, read-out: Minimum Inhibitory Concentration (MIC)
Protocol: as §1

[16] = test system: E. cloacae 963; experiment: agar plate dilution method, MIC against E. cloacae 963; format: cell-based; conditions: read-out: Minimum Inhibitory Concentration (MIC)
Protocol: as §1

[17] = test system: A. calcoaceticus No. 4; experiment: agar plate dilution method, MIC against A. calcoaceticus No. 4; format: cell-based; conditions: Acinetobacter calcoaceticus, read-out: Minimum Inhibitory Concentration (MIC)
Protocol: as §1

[18] = test system: M. morganii GN5407; experiment: agar plate dilution method, MIC against M. morganii GN5407; format: cell-based; conditions: Morganella morganii, read-out: Minimum Inhibitory Concentration (MIC)
Protocol: as §1

[19] = test system: M. luteus ATCC9341; experiment: agar plate dilution method, MIC against M. luteus ATCC9341; format: cell-based; conditions: Micrococcus luteus, read-out: Minimum Inhibitory Concentration (MIC)
Protocol: as §1

[20] = test system: K. pneumoniae No. 42; experiment: agar plate dilution method, MIC against K. pneumoniae No. 42; format: cell-based; conditions: Klebsiella pneumoniae, read-out: Minimum Inhibitory Concentration (MIC)
Protocol: as §1

[21] = test system: S. aureus BB5703; experiment: agar plate dilution method, MIC against S. aureus BB5703; format: cell-based; conditions: Staphylococcus aureus, BB5703, 16 h, read-out: Minimum Inhibitory Concentration (MIC)
Protocol: as §1

[22] = test system: K. oxytoca GN10650; experiment: agar plate dilution method, MIC against K. oxytoca GN10650; format: cell-based; conditions: Klebsiella oxytoca, read-out: Minimum Inhibitory Concentration (MIC)
Protocol: as §1

[23] = test system: S. aureus 209P NIHJ-JC1; experiment: agar plate dilution method, MIC against S. aureus 209P NIHJ-JC1; format: cell-based; conditions: Staphylococcus aureus, 16 h, read-out: Minimum Inhibitory Concentration (MIC)
Protocol: as §1

[24] = test system: E. coli CSH2 (RK1); experiment: agar plate dilution method, MIC against E. coli CSH2 (RK1); format: cell-based; conditions: Escherichia coli, 16 h, read-out: Minimum Inhibitory Concentration (MIC)
Protocol: as §1

[25] = test system: K. pneumoniae PCI-602; experiment: agar plate dilution method, MIC against K. pneumoniae PCI-602; format: cell-based; conditions: Klebsiella pneumoniae, PCI602, 16 h, read-out: Minimum Inhibitory Concentration (MIC)
Protocol: as §1

[26] = test system: S. epidermidis IAM12012; experiment: agar plate dilution method, MIC against S. epidermidis IAM12012; format: cell-based; conditions: Staphylococcus epidermidis, IAM12012, 16 h, read-out: Minimum Inhibitory Concentration (MIC)
Protocol: as §1

[27] = test system: Ps. cepacia 23; experiment: agar plate dilution method, MIC against Ps. cepacia 23; format: cell-based, Pseudomonas cepacia; conditions: read-out: Minimum Inhibitory Concentration (MIC)
Protocol: as §1

Work on `CO/N=C(\C(=O)N[C@@H]1C(=O)N2C(C(=O)O)=C(COC(C)=O)CS[C@H]12)c1csc(N)n1` [Cefotaxime, cefotaxime, reference compound] yielded an MIC ([1]; E. coli GN5482 (lactamase-producing strain), 10^6 CFU/ml, 37° C., 16 hours) of 0.39 µg/mL (≈ 0.856 µM), an MIC ([2]; C. freundii GN346/16, 10^6 CFU/ml, 37° C., 16 hours) of 0.1 µg/mL (≈ 0.22 µM) and an MIC ([3]; NIHJJC2, E. coli NIHJ JC2, 10^6 CFU/ml, 37° C., 16 hours) of 0.05 µg/mL (≈ 0.11 µM). For the same compound, the MIC ([4]; NEK39, E. cloacae Nek 39 (lactamase-producing strain), 10^6 CFU/ml, 37° C., 16 hours) was 3.12 µg/mL (≈ 6.85 µM), the MIC [5] was > 100 µg/mL and the MIC ([6]; IFO3445, 16 h) was 12.5 µg/mL (≈ 27.4 µM). For the same compound, the MIC ([7]; IAM1184, S. marcescens IAM 1184, 10^6 CFU/ml, 37° C., 16 hours) was 0.1 µg/mL (≈ 0.22 µM), the MIC ([8]; P. vulgaris No. 33 (lactamase-producing strain), 10^6 CFU/ml, 37° C., 16 hours) was 0.025 µg/mL (≈ 0.0549 µM) and the MIC ([9]; C. freundii GN346 (lactamase-producing strain), 10^6 CFU/ml, 37° C., 16 hours) was 12.5 µg/mL (≈ 27.4 µM). For the same compound, the MIC ([10]; S. aureus JS1 (methicilline resistant; lactamase-producing strain), 10^6 CFU/ml, 37° C., 16 hours) was 25 µg/mL (≈ 54.9 µM), the MIC [11] was 12.5 µg/mL (≈ 27.4 µM) and the MIC [12] was < 0.006 µg/mL. For the same compound, the MIC [13] was 0.1 µg/mL (≈ 0.22 µM), the MIC ([14]; GN12873, Ps. maltophilia GN 12873 (lactamase-producing strain), 10^6 CFU/ml, 37° C., 16 hours) was > 100 µg/mL and the MIC [15] was 12.5 µg/mL (≈ 27.4 µM). For the same compound, the MIC ([16]; Enterobacter cloacae, E. cloacae 963, 10^6 CFU/ml, 37° C., 16 hours) was 0.1 µg/mL (≈ 0.22 µM), the MIC ([17]; A. calcoaceticus No. 4, 10^6 CFU/ml, 37° C., 16 hours) was 25 µg/mL (≈ 54.9 µM) and the MIC ([18]; M. morganii GN5407 (lactamase-producing strain), 10^6 CFU/ml, 37° C., 16 hours) was 0.1 µg/mL (≈ 0.22 µM). For the same compound, the MIC ([19]; M. luteus ATCC9341, 10^6 CFU/ml, 37° C., 16 hours) was 0.1 µg/mL (≈ 0.22 µM), the MIC ([20]; K. pneumoniae No. 42 (lactamase-producing strain), 10^6 CFU/ml, 37° C., 16 hours) was 0.05 µg/mL (≈ 0.11 µM) and the MIC [21] was 3.12 µg/mL (≈ 6.85 µM). For the same compound, the MIC ([22]; K. oxytoca GN10650 (lactamase-producing strain), 10^6 CFU/ml, 37° C., 16 hours) was 0.39 µg/mL (≈ 0.856 µM), the MIC [23] was 1.56 µg/mL (≈ 3.43 µM) and the MIC [24] was 0.025 µg/mL (≈ 0.0549 µM). For the same compound, the MIC [25] was < 0.006 µg/mL, the MIC [26] was 1.56 µg/mL (≈ 3.43 µM) and the MIC ([27]; Burkholderia cepacia, 23, 16 h) was 6.25 µg/mL (≈ 13.7 µM).
`CC(C)(O/N=C(\C(=O)N[C@@H]1C(=O)N2C(C(=O)[O-])=C(C[n+]3ccccc3)CS[C@H]12)c1csc(N)n1)C(=O)O` [Ceftazidime, ceftazidime, reference compound] was tested, and the MIC ([1]; GN5482, 16 h) was 1.56 µg/mL (≈ 2.85 µM), the MIC ([2]; GN346, 16 h) was 0.2 µg/mL (≈ 0.366 µM) and the MIC ([3]; NIHJJC2, 16 h) was 0.2 µg/mL (≈ 0.366 µM). The MIC ([4]; NEK39, 16 h) was 3.12 µg/mL (≈ 5.71 µM), the MIC [5] was > 100 µg/mL and the MIC ([6]; Ps. aeruginosa IFO3445, 10^6 CFU/ml, 37° C., 16 hours) was 0.39 µg/mL (≈ 0.714 µM). For the same compound, the MIC ([7]; IAM1184, 16 h) was 0.025 µg/mL (≈ 0.0457 µM), the MIC ([8]; NO.33, 16 h) was 0.05 µg/mL (≈ 0.0915 µM) and the MIC ([9]; GN346, 16 h) was 25 µg/mL (≈ 45.7 µM). For the same compound, the MIC ([10]; JS1, 16 h) was 25 µg/mL (≈ 45.7 µM), the MIC [11] was 1.56 µg/mL (≈ 2.85 µM) and the MIC [12] was 0.025 µg/mL (≈ 0.0457 µM). The MIC [13] was 0.1 µg/mL (≈ 0.183 µM), the MIC ([14]; GN12873, 16 h) was 100 µg/mL (≈ 183 µM) and the MIC [15] was 1.56 µg/mL (≈ 2.85 µM). For the same compound, the MIC ([16]; Enterobacter cloacae, 963, 16 h) was 0.2 µg/mL (≈ 0.366 µM), the MIC ([17]; NO.4, 16 h) was 6.25 µg/mL (≈ 11.4 µM) and the MIC ([18]; GN5407, 16 h) was 0.1 µg/mL (≈ 0.183 µM). The MIC ([19]; ATCC9341, 16 h) was 0.78 µg/mL (≈ 1.43 µM), the MIC ([20]; NO.42, 16 h) was 0.39 µg/mL (≈ 0.714 µM) and the MIC [21] was 12.5 µg/mL (≈ 22.9 µM). The MIC ([22]; GN10650, 16 h) was 0.2 µg/mL (≈ 0.366 µM), the MIC [23] was 6.25 µg/mL (≈ 11.4 µM) and the MIC [24] was 0.1 µg/mL (≈ 0.183 µM). The MIC [25] was < 0.006 µg/mL, the MIC [26] was 3.12 µg/mL (≈ 5.71 µM) and the MIC ([27]; Burkholderia cepacia, Ps. cepacia 23, 10^6 CFU/ml, 37° C., 16 hours) was 0.78 µg/mL (≈ 1.43 µM).
